{"source": "patent US20250222120A1", "about": "“SYNTHESIS OF NOVEL SMALL MOLECULE CARM1 DEGRADERS, COMPOUNDS FORMED THEREBY, AND PHARMACEUTICAL COMPOSITIONS CONTAINING THEM” (Wisconsin Alumni Research Foundation, priority 2024, published 2025)", "key": {"CARM1": {"biological_target": "T1, CARM1 (Homo sapiens, UniProt Q86X55)", "T1 sequence (Q86X55 1-608)": "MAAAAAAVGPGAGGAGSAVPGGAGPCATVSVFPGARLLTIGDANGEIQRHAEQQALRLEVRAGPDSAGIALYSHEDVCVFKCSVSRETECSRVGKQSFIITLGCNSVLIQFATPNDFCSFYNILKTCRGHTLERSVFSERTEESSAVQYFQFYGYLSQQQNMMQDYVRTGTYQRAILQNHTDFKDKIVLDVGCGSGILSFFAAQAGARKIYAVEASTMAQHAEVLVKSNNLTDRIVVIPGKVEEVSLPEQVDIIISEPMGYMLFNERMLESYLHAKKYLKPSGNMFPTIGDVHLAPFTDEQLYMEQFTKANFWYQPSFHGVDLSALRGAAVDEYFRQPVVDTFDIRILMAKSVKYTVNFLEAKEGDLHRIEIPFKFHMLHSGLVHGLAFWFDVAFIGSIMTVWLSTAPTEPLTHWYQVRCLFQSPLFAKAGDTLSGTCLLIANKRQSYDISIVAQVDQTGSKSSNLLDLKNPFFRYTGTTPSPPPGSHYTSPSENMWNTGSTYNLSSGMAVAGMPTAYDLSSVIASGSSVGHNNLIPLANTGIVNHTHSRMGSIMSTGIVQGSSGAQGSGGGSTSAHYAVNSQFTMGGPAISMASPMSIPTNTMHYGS", "test": "CARM1 degradation by western blot in BT474 cells", "type": "cell-based", "details": "ER+/HER2+ BT474 cells, 0.5 μM, after 24 or 48 h", "description": "FIGS. 7A-7F. […] Cell lysates were collected and CARM1, methyl-BAF155, total BAF155, methyl-PABP1, and total PABP1 levels were detected by Western blot. […] Cell lysates were collected and CARM1, methyl-BAF155, total BAF155 levels were detected by Western blot. […] Cell proliferation rate normalized to day 0 was plotted. […] Migrated cells were stained with 1% crystal violet and the percentage of migrated cells were plotted. Data mean±s.d. ***. P≤0.001.\n(§1) Western Blot Assay. Cells were harvested and washed with Dulbecco's phosphate-buffered saline (PBS), then lysed with 1×RIPA lysis buffer (50 mM Tris pH 7.5, 150 mM NaCl, 1% NP-40, 0.5% sodium deoxycholate, and 0.1% sodium dodecyl sulfate) supplemented with 1 mM phenylmethylsulfonyl fluoride, 10 μg/mL aprotinin, 1 μM leupeptin, and 10 μg/mL pepstatin on ice for 20 min. The supernatant was collected after spinning down at 15000 RPM at 4 degrees Celsius for 10 min. The concentration of whole lysates was quantified using a Bradford assay. 50-75 μg of cell lysates was boiled in 4× Laemmli Loading Dye and boiled at 100 degrees Celsius for 10 min. 25 μg were run in 8% SDS-PAGE gels and transferred to nitrocellulose membranes. Blots were blocked in 5% skim milk in PBST [PBS and 0.1% Tween 20] for 45 min, then incubated with primary antibodies at 4 degrees Celsius overnight. […]"}, "[1]": {"system": "PABP1 and BAF155 di-methylation by CARM1", "test": "PABP1 and BAF155 di-methylation (me2a) inhibition in MCF7 cells, western blot", "type": "cell-based, human", "details": "24 h, 0.1 μM 3b versus 10 μM TP-064", "description": "(See Wang et al. “CARM1 Methylates Chromatin Remodeling Factor BAF155 to Enhance Tumor Progression and Metastasis” Cancer Cell 2014, 25 (1), 21-36; Lee and Bedford. “PABP1 Identified as an Arginine Methyltransferase Substrate Using High-Density Protein Arrays” EMBO Rep. 2002, 3 (3), 268-273.) In fact, asymmetric dimethylation (me2a) of these proteins are routinely investigated for CARM1 inhibitors.\nas §1"}}, "data": [{"compound": "CNCCN1CCC(c2cc(CN(C)C(=O)c3cccc(Oc4ccc(OCC(=O)N5CCC(CN6CCC(CN7CCN(CC(=O)N[C@H](C(=O)N8C[C@H](O)C[C@H]8C(=O)N[C@@H](C)c8ccc(-c9scnc9C)cc8)C(C)(C)C)CC7)CC6)CC5)cc4)c3)ccn2)CC1", "note": "[Compound 3b, (2S,4R)-1-((S)-3,3-dimethyl-2-(2-(4-((1-((1-(2-(4-(3-(methyl((2-(1-(2-(methylamino)ethyl)piperidin-4-yl)pyridin-4-yl)methyl)carbamoyl)phenoxy)phenoxy)acetyl)piperidin-4-yl)methyl)piperidin-4-yl)methyl)piperazin-1-yl)acetamido)butanoyl)-4-hydroxy-N—((S)-1-(4-(4-methylthiazol-5-yl)phenyl)ethyl)pyrrolidine-2-carboxamide]", "values": [{"measurement": "CARM1 degradation", "setting": "CARM1", "result": "effectively degraded"}, {"measurement": "Levels of PABP1 and BAF155 me2a inhibition", "setting": "[1]", "result": "at least as equivalent to that of 10 μM of TP-064"}]}]}
